The source of these data is ChEMBL document CHEMBL1268944, “The antiplasmodial activity of norcantharidin analogs” (Bioorg Med Chem Lett, 2010).

The nature of data set [1]: Inhibition of human PP1 expressed in Escherichia coli BL21.
The nature of data set [2]: Inhibition of human PP2A expressed in Escherichia coli BL21.
For data set [3], the system named is Plasmodium falciparum. In words: Antiplasmodial activity against chloroquine-sensitive Plasmodium falciparum D6 assessed as inhibition of parasite LDH activity after 72 hrs by malstat reagent method. It counts as functional, organism-based. The conditions noted are these: D6, 72 h.
The subject of data set [4] is Plasmodium falciparum. In words: Antiplasmodial activity against chloroquine-resistant Plasmodium falciparum W2 assessed as inhibition of parasite LDH activity […] after 72 hrs by malstat reagent method. The conditions noted are these: W2, 72 h. It counts as functional, organism-based.
The species entered for data set [5] is Homo sapiens. In words: Inhibition of human PP1 at 100 uM.
For data set [6], the species on record is Homo sapiens. The data set can be described thus: Inhibition of human PP2A at 100 uM.
The nature of data set [7]: Solubility of the compound in PP1 assay medium at 40 mM. It is filed as physicochemical. The conditions noted are these: 40000 µM.
Data set [8] can be described thus: Solubility of the compound in PP2A assay medium at 40 mM. It is filed as physicochemical. The conditions noted are these: 40000 µM.
Data set [9] concerns Plasmodium falciparum. In words: Ratio of Norcantharidin IC50 to compound IC50 for chloroquine-resistant Plasmodium falciparum W2. It is filed as functional.
Data set [10] in a line: Inhibition of human PP1.
Data set [11] in a line: Inhibition of human PP2A.
Data set [12] concerns Plasmodium falciparum. In words: Ratio of Norcantharidin IC50 to compound IC50 for chloroquine-sensitive Plasmodium falciparum D6. It is filed as functional.

Bounds are passed on as bounds.

The term IC50 denotes the point on the concentration scale where inhibition reaches its midpoint. In the case of `O=C(O)[C@@H]1[C@H](C(=O)O)[C@H]2CC[C@@H]1O2` [ENDOTHALL], the values for the IC50 in data set [1] and in data set [2] were 4 µM and 0.09 µM, respectively.

As to `O=C1OC(=O)C2C3CCC(O3)C12` (stereo unspecified) [DEMETHYL-CANTHARIDIN], the IC50 came out at 60 µM in [3], 2 µM in data set [1], 50 µM in [4] and 0.4 µM in [2].

In general, inhibition refers to the relative decrease from the control value, in per cent. A higher inhibition goes with strong suppression. Regarding `CSc1ccccc1NC(=O)C1C(C(=O)O)[C@@H]2CC[C@H]1O2` (stereo partly specified), the IC50 is 340 µM in [3] and greater than 500 µM in data set [4]. Also, the inhibition was 76% in data set [5] and 58% in data set [6].

Consider `C=CCCNC(=O)C1C(C(=O)O)[C@@H]2CC[C@H]1O2` (stereo partly specified), for which the solubility entry in data set [7] and in [8] was “Insoluble” in each case. The IC50 in [3] and in data set [4] was greater than 500 µM throughout.

Turning to `C=CCNC(=O)C1C(C(=O)O)[C@@H]2CC[C@H]1O2` (stereo partly specified), the “Ratio IC50” value in [9] and in [12] was 20 throughout. For the same compound, the IC50 in data set [3] worked out at 3 µM; in [10], 40 µM; in [11] it was 10 µM; in data set [4] it was 3 µM.

Turning to `O=C(O)C1C(C(=O)NCCc2cnc[nH]2)[C@H]2CC[C@@H]1O2` (stereo partly specified), the IC50 worked out at 307 µM in data set [3] and 267 µM in [4]. In addition, the results for the inhibition in data set [5] and in [6] were 35% and 26%, respectively.

In the case of `Cc1cccc(C)c1NC(=O)C1C(C(=O)O)[C@@H]2CC[C@H]1O2` (stereo partly specified), the IC50 in [3] came to 306 µM; in data set [4] it was 290 µM. Further, the inhibition came out at 68% in data set [5] and 24% in data set [6].

`C[C@@]12C(=O)OC(=O)[C@]1(C)[C@H]1CC[C@@H]2O1` [CANTHARIDIN]: the IC50 in data set [3] came to 9 µM; in data set [1], 1.8 µM; in data set [4], 9 µM; in data set [2] it was 0.2 µM.

Regarding `O=C(O)C1C(C(=O)Nc2ccccc2O)[C@H]2CC[C@@H]1O2` (stereo partly specified), the IC50 in [3] worked out at 385 µM; in data set [4], 380 µM. Also, the results for the inhibition in data set [5] and in data set [6] were 33% and 9.8%, respectively.

In the case of `Cc1cc(C)c(NC(=O)C2C(C(=O)O)[C@@H]3CC[C@H]2O3)c(C)c1` (stereo partly specified), the IC50 is 340 µM in data set [3] and greater than 500 µM in data set [4]. Also, the inhibition in data set [5] came to 63%; in data set [6], 23%.

For the compound `CCCCCCCCCCCCNC(=O)C1C(C(=O)O)[C@@H]2CC[C@H]1O2` (stereo partly specified), the solubility result in data set [7] and in data set [8] was “Insoluble” each time. The IC50 is 70 µM in [3] and 106 µM in data set [4].

For `O=C(O)C1C(C(=O)Nc2ccccc2CO)[C@H]2CC[C@@H]1O2` (stereo partly specified), the IC50 was 275 µM in [3] and 333 µM in data set [4]. For the same compound, the inhibition in data set [5] was found to be 84%; in data set [6], 30%.

As for `O=C(O)C1C(C(=O)Nc2cccc3ccccc23)[C@H]2CC[C@@H]1O2` (stereo partly specified), the values for the IC50 in data set [3] and in data set [4] were 210 µM and 193 µM, respectively. In addition, the inhibition stood at 79% in data set [5] and 73% in data set [6].

On to `CC(C)(C)c1ccc(C(C)(C)C)c(NC(=O)C2C(C(=O)O)[C@@H]3CC[C@H]2O3)c1` (stereo partly specified), for which the solubility result in data set [7] and in [8] was “Insoluble” each time. The values for the IC50 in data set [3] and in [4] were 40 µM and 205 µM, respectively.
